How the values were obtained:
[1] = Signal differences in mammalian cell culture media (DMEM) versus physiological buffer (HBSS) with hydrogen peroxide; format: biochemical; settings: 30 minutes
Procedure: A 100 μl sample of 4 mg/ml DMSO solution of PBI 4458 was diluted to 500 μl with HBSS buffer (Invitrogen 14025-092), and 50 μl added to wells A1-A9 of a fresh microtiter plate (“DISP”). 100 μl 4 mg/ml DMSO solution of PBI 4472 was diluted to 500 μl with HBSS, and 50 μl added to wells E1-E9. 90 μl HBSS was added to wells A1-B9 of two new microtiter plates labeled “RT” and “37C”. 90 μl DMEM was added to wells C1-D9 of both plates.
A sample of 30% hydrogen peroxide (Sigma H1009-5 ml) was diluted to 1 mM with Nanopure water, and 7.5 μl 1 mM hydrogen peroxide diluted to 1.5 ml with HBSS, and 90 μl added to wells A4-B6 of plates RT and 37° C. 15 μl 1 mM hydrogen peroxide was diluted to […] with HBSS, and 90 μl added to wells A7-B9 of both plates. 90 μl of HBSS was added to wells A1-B3, and 90 μl of DMEM added to wells C1-D3 of both plates. 7.5 μl 1 mM hydrogen peroxide was diluted to 1.5 ml with DMEM, and 90 μl added to wells C4-D6 of both plates. 15 μl 1 mM hydrogen peroxide was diluted to 1.5 ml with DMEM and 90 μl added to wells C7-D9 of both plates.
10 μl samples of row A of plate “DISP” was transferred to rows A and C of plates RT and 37° C., and 10 μl of row B of plate “DISP” transferred to rows B and D of plates RT and 37° C. The 37° C. plate was incubated at 37° C., 5% CO2, with plate RT incubated at room temperature. Both plates were incubated for 30 minutes.
A conversion solution was made by mixing 7.5 ml of 1 M HEPES, pH 8.0, 7.4 ml Nanopure water and 100 μl 100 mM D cysteine. After mixing, 75 μl was added to all wells of a new luminometer plate.
After incubation, 25 μl from wells A1-D9 of the 37° C. plate was transferred to wells E1-H9 of the new luminometer plate, 25 μl of wells A1-D9 of the RT plate was transferred to wells A1-D9 of new luminometer plate, and the plate incubated at room temperature for 2-3 minutes. A 100 μl sample of LDR (Example 23) was added to wells A1-H9, incubated for 15 minutes at room temperature, and bioluminescence detected on a GloMax® luminometer. After reading, the duplicate wells were averaged, and the averaged values with peroxide addition were compared to those without peroxide (Table 11).

[2] = Signal strength differences due to reaction pH and buffer composition (hydrogen peroxide, D-cysteine conversion, LDR); format: biochemical; settings: for Net Average Signals at 15 Minutes / Net Average Signals at 60 Minutes / Net Average Signals at 105 Minutes: 100 μl of 10 μM H2O2 added
Procedure: A 30 μl sample of 4 mg/ml PBI 4458 in DMSO was diluted to 1.5 ml with Nanopure water, and 50 μl added to wells A1-12 and E1-12 of a microtiter plate. A 30 μl sample of 4 mg/ml PBI 4472 in DMSO was diluted to 1.5 ml with Nanopure, and 50 μl added to wells B1-12 and F1-12 of the plate. A 30 μl sample of 4 mg/ml PBI 4480 in DMSO was diluted to 1.5 ml with Nanopure water, and 50 μl added to wells C1-12 and G1-12 of the plate. A 30 μl sample of 4 mg/ml PBI 4481 in DMSO was diluted to 1.5 ml with Nanopure water, and 50 μl added to wells D1-12 and H1-12 of the plate. To the plate, a 50 μl sample of 200 mM KHPO4, pH 7.4 was added to wells A1-D4; 50 μl 200 mM Tris buffer, pH 7.4 was added to wells A5-D8; 50 μl 250 mM HEPES buffer, pH 7.5 was added to wells A9-D12; 50 μl 200 mM KHPO4 buffer, pH 9.2 was added to wells E1-H4; 50 μl 250 mM Tris buffer, pH 10.4 was added to wells E5-H8; and 50 μl 100 mM CAPS buffer, pH 10.4 was added to wells E9-H12.
A sample of hydrogen peroxide (30%, Sigma, H1009-5 ml) was diluted to 10 μM with Nanopure water, and 100 μl added to columns 3, 4, 7, 8, 11, 12 wells A-H of the plate. 100 μl Nanopure water was added to columns 1, 2, 5, 6, 9 and 10 of the plate. The plate was incubated at room temperature for 15 minutes.
A conversion solution was made by mixing 5 ml of 1 M HEPES buffer, pH 7.5, 4.9 ml of Nanopure water and 100 μl of 100 mM D-cysteine (in Nanopure water), and […] added to all wells of a luminometer plate.
After incubation, 25 μl of sample from all wells in the plate was transferred and mixed into the corresponding wells in the luminometer plate, incubated 2-3 minutes at room temperature, and 50 μl LDR (Example 23) added. The luminometer plate was incubated for 15 minutes at room temperature, and bioluminescence detected on a GloMax® luminometer.
Additional samples were taken at 60 and 105 minutes and added to a fresh luminometer plates containing 25 μl of conversion solution in all wells. The plates were then incubated for 15 minutes at room temperature, and bioluminescence detected as previously described.

CC1(C)OB(c2ccc(COc3ccc4nc(C#N)sc4c3)cc2)OC1(C)C [PBI 4472, 6-((4-(4,4,5,5-tetramethyl-1,3,2-dioxaborolan-2-yl)benzyl)oxy)benzo-[d]thiazole-2-carbonitrile]
Averaged Relative Light Unit Values ([1]; DMEM, 37 C. plate, 0 uM Per): 400,077 Relative Light Unit | Averaged Relative Light Unit Values ([1]; DMEM, 37 C. plate, 5 uM Per): 3,083,589 Relative Light Unit | Averaged Relative Light Unit Values ([1]; DMEM, 37 C. plate, 10 uM Per): 5,340,569 Relative Light Unit | Averaged Relative Light Unit Values ([1]; DMEM, RT plate, 0 uM Per): 921,496 Relative Light Unit | Averaged Relative Light Unit Values ([1]; DMEM, RT plate, 5 uM Per): 4,304,645 Relative Light Unit | Averaged Relative Light Unit Values ([1]; DMEM, RT plate, 10 uM Per): 8,071,553 Relative Light Unit | Averaged Relative Light Unit Values ([1]; HBSS, 37 C. plate, 0 uM Per): 44,007 Relative Light Unit | Averaged Relative Light Unit Values ([1]; HBSS, 37 C. plate, 5 uM Per): 424,851 Relative Light Unit | Averaged Relative Light Unit Values ([1]; HBSS, 37 C. plate, 10 uM Per): 715,803 Relative Light Unit | Averaged Relative Light Unit Values ([1]; HBSS, RT plate, 0 uM Per): 103,738 Relative Light Unit | Averaged Relative Light Unit Values ([1]; HBSS, RT plate, 5 uM Per): 1,106,195 Relative Light Unit | Averaged Relative Light Unit Values ([1]; HBSS, RT plate, 10 uM Per): 2,058,421 Relative Light Unit | Signal to Background Ratios at 15 Minutes ([2]; CAPS pH 10.4, 15 minutes): 17.0 | Net Average Signals at 15 Minutes ([2]; CAPS pH 10.4, 15 minutes): 3,154,440 RLU | Signal to Background Ratios at 60 Minutes ([2]; CAPS pH 10.4, 60 minutes): 15.4 | Net Average Signals at 60 Minutes ([2]; CAPS pH 10.4, 60 minutes): 5,425,701 RLU | Signal to Background Ratios at 105 Minutes ([2]; CAPS pH 10.4, 105 minutes): 11.3 | Net Average Signals at 105 Minutes ([2]; CAPS pH 10.4, 105 minutes): 7,554,957 RLU | Signal to Background Ratios at 15 Minutes ([2]; HEPES pH 7.5, 15 minutes): 3.9 | Net Average Signals at 15 Minutes ([2]; HEPES pH 7.5, 15 minutes): 58,399 RLU | Signal to Background Ratios at 60 Minutes ([2]; HEPES pH 7.5, 60 minutes): 8.0 | Net Average Signals at 60 Minutes ([2]; HEPES pH 7.5, 60 minutes): 159,982 RLU | Signal to Background Ratios at 105 Minutes ([2]; HEPES pH 7.5, 105 minutes): 8.2 | Net Average Signals at 105 Minutes ([2]; HEPES pH 7.5, 105 minutes): 259,725 RLU | Net Average Signals at 15 Minutes ([2]; KPO4 Ph 7.4, 15 minutes): 43,867 RLU | Signal to Background Ratios at 15 Minutes ([2]; KPO4 pH 7.4, 15 minutes): 3.1 | Signal to Background Ratios at 60 Minutes ([2]; KPO4 pH 7.4, 60 minutes): 4.9 | Net Average Signals at 60 Minutes ([2]; KPO4 pH 7.4, 60 minutes): 102,614 RLU | Signal to Background Ratios at 105 Minutes ([2]; KPO4 pH 7.4, 105 minutes): 5.3 | Net Average Signals at 105 Minutes ([2]; KPO4 pH 7.4, 105 minutes): 168,787 RLU | Signal to Background Ratios at 15 Minutes ([2]; KPO4 pH 9.2, 15 minutes): 11.0 | Net Average Signals at 15 Minutes ([2]; KPO4 pH 9.2, 15 minutes): 400,087 RLU | Signal to Background Ratios at 60 Minutes ([2]; KPO4 pH 9.2, 60 minutes): 14.7 | Net Average Signals at 60 Minutes ([2]; KPO4 pH 9.2, 60 minutes): 781,296 RLU | Signal to Background Ratios at 105 Minutes ([2]; KPO4 pH 9.2, 105 minutes): 14.6 | Net Average Signals at 105 Minutes ([2]; KPO4 pH 9.2, 105 minutes): 1,380,626 RLU | Signal to Background Ratios at 15 Minutes ([2]; TRIS pH 10.4, 15 minutes): 32.9 | Net Average Signals at 15 Minutes ([2]; TRIS pH 10.4, 15 minutes): 1,530,303 RLU | Signal to Background Ratios at 60 Minutes ([2]; TRIS pH 10.4, 60 minutes): 34.2 | Net Average Signals at 60 Minutes ([2]; TRIS pH 10.4, 60 minutes): 3,777,236 RLU | Signal to Background Ratios at 105 Minutes ([2]; TRIS pH 10.4, 105 minutes): 26.5 | Net Average Signals at 105 Minutes ([2]; TRIS pH 10.4, 105 minutes): 6,279,007 RLU | Signal to Background Ratios at 15 Minutes ([2]; Tris pH 7.4, 15 minutes): 6.6 | Net Average Signals at 15 Minutes ([2]; Tris pH 7.4, 15 minutes): 121,480 RLU | Signal to Background Ratios at 60 Minutes ([2]; Tris pH 7.4, 60 minutes): 13.2 | Net Average Signals at 60 Minutes ([2]; Tris pH 7.4, 60 minutes): 371,397 RLU | Signal to Background Ratios at 105 Minutes ([2]; Tris pH 7.4, 105 minutes): 13.6 | Net Average Signals at 105 Minutes ([2]; Tris pH 7.4, 105 minutes): 658,967 RLU
